How the values were obtained:
AnaPS = AnaPS (Aspergillus fischeri, UniProt A1DN09); experiment: amino acid-dependent ATP-[…]PPi exchange; type: biochemical; conditions: adenylation domain substrate; ATP co-substrate
TqaA = TqaA (Penicillium aethiopicum, UniProt F1CWE4); experiment: amino acid-dependent ATP-[…]PPi exchange; type: biochemical; conditions: adenylation domain substrate; ATP co-substrate

Chain of AnaPS (A1DN09 whole entry, the tested form may be a part): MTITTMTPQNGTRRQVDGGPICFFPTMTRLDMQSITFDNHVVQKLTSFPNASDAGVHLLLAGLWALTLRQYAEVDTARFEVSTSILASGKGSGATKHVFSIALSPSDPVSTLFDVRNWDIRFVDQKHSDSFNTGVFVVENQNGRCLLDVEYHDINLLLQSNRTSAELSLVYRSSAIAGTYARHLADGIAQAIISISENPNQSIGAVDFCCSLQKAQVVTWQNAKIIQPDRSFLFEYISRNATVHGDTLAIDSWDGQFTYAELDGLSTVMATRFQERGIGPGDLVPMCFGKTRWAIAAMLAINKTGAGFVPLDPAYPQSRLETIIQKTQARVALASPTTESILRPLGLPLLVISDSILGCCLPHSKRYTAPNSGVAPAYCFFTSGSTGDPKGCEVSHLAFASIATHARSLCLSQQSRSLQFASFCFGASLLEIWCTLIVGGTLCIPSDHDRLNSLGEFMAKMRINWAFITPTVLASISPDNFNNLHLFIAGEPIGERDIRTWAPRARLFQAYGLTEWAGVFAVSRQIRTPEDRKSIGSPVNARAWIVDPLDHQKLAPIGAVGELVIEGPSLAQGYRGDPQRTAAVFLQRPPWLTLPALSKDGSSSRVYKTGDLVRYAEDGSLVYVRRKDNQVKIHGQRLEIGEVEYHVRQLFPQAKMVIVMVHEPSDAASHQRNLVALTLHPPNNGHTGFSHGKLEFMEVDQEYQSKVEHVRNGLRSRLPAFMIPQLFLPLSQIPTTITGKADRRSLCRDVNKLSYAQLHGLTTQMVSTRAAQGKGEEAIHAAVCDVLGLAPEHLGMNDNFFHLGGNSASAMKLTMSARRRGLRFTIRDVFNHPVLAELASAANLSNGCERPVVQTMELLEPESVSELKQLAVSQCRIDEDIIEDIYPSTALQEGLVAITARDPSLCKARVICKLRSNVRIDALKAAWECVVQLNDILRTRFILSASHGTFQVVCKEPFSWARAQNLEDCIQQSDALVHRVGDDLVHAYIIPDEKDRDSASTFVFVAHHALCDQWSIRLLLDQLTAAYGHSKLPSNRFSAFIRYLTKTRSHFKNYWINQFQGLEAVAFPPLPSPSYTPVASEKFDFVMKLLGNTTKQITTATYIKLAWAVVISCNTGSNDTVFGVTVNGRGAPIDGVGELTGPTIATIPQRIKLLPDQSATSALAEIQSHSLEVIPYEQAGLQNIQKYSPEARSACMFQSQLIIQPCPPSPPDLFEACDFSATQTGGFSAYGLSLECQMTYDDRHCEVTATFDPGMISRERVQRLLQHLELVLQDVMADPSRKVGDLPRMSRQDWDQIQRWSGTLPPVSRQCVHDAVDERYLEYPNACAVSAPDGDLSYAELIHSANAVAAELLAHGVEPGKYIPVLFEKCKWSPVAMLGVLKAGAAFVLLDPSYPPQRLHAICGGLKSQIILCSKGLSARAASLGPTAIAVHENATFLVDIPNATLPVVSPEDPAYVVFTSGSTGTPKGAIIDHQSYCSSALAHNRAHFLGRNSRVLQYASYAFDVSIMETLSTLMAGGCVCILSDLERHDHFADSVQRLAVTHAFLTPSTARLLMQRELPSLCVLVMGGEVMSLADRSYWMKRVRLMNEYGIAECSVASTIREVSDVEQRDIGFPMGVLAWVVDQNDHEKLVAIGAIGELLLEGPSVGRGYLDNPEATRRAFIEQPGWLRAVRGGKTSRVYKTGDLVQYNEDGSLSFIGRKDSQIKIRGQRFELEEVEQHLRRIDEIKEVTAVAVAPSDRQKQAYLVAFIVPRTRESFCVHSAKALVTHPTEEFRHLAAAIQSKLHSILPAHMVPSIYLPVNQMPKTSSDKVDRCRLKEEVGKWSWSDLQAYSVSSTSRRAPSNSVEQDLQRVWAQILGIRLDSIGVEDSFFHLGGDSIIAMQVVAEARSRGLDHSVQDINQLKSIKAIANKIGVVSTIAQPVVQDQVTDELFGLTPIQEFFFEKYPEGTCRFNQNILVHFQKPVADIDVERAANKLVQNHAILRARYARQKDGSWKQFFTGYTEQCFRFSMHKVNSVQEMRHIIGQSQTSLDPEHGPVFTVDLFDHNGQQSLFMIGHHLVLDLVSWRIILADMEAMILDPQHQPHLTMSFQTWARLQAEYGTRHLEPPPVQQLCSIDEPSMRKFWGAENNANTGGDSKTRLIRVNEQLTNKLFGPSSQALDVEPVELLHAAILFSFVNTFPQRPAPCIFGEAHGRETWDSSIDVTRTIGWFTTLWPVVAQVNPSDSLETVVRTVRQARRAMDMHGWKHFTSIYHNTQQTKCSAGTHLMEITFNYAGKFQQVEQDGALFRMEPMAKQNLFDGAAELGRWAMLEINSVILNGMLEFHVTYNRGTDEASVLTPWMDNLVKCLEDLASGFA

SMILES | amino acid-dependent ATP-[32P]PPi exchange (AnaPS) | amino acid-dependent ATP-[32P]PPi exchange (TqaA)
N[C@@H](Cc1c[nH]c2ccccc12)C(=O)O [L-tryptophan] | Similarly, AnaPS A domains activated Ant and L-Trp | –
Nc1ccccc1C(=O)O [anthranilate] | Similarly, AnaPS A domains activated Ant and L-Trp | TqaA specifically activated the three building blocks Ant, L-Trp and L-Ala

From publication PMC3505271 (Nature chemical biology, 2012)
